Experiment [1] has as its target Serine/threonine-protein kinase 33 (Homo sapiens) (UniProt Q9BYT3). Nature of the experiment: Residual activity of STK33 at 10 uM by microplate scintillation counting.
Experiment [2] has as its target T1, cGMP-dependent protein kinase 2 (Homo sapiens) (UniProt Q13237).
T1 sequence (whole entry): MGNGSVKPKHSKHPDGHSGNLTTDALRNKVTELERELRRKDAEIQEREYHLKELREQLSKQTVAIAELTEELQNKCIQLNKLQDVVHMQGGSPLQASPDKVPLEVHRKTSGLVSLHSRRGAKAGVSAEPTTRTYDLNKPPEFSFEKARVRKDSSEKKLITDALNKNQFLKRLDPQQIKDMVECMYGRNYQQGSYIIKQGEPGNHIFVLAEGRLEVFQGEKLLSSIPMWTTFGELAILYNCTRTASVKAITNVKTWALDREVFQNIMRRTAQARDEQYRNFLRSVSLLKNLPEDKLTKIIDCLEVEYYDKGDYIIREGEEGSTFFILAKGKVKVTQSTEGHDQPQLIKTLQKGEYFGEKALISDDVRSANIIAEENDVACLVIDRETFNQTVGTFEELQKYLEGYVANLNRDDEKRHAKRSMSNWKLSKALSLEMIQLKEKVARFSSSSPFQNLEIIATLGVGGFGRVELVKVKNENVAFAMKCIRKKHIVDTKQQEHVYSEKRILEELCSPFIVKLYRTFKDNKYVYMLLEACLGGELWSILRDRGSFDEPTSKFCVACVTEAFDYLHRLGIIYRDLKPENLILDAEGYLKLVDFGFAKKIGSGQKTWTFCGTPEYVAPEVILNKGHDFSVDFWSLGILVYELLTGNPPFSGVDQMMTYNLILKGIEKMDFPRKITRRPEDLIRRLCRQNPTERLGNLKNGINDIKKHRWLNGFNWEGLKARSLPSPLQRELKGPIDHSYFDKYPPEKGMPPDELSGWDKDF
Description: Residual activity of PRKG2 at 1 uM by microplate scintillation counting.

Experiment [3] deals with T2, Activin receptor type-1 (Homo sapiens) (UniProt Q04771).
T2 sequence (whole entry): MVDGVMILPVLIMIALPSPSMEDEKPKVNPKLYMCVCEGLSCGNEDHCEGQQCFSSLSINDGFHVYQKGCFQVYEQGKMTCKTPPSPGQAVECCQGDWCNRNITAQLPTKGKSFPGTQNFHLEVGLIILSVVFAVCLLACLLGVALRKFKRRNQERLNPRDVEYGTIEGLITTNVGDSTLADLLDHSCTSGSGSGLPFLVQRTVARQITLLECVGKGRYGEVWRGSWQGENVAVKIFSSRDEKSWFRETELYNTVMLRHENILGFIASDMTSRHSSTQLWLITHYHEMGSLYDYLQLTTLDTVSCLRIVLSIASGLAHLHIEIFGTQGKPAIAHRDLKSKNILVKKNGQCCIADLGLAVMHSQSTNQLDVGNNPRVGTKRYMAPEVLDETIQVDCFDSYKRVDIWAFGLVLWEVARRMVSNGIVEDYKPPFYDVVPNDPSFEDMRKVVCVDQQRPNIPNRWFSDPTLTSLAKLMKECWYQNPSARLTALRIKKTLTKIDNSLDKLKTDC
Description: Residual activity of ACV-R1 at 1 uM by microplate scintillation counting.

For experiment [4], the target named is Serine/threonine-protein kinase PLK2 (Homo sapiens) (UniProt Q9NYY3). Nature of the experiment: Residual activity of SNK at 1 uM by microplate scintillation counting.
Experiment [5] addresses T3, Serine/threonine-protein kinase D3 (Homo sapiens) (UniProt O94806).
T3 sequence (whole entry): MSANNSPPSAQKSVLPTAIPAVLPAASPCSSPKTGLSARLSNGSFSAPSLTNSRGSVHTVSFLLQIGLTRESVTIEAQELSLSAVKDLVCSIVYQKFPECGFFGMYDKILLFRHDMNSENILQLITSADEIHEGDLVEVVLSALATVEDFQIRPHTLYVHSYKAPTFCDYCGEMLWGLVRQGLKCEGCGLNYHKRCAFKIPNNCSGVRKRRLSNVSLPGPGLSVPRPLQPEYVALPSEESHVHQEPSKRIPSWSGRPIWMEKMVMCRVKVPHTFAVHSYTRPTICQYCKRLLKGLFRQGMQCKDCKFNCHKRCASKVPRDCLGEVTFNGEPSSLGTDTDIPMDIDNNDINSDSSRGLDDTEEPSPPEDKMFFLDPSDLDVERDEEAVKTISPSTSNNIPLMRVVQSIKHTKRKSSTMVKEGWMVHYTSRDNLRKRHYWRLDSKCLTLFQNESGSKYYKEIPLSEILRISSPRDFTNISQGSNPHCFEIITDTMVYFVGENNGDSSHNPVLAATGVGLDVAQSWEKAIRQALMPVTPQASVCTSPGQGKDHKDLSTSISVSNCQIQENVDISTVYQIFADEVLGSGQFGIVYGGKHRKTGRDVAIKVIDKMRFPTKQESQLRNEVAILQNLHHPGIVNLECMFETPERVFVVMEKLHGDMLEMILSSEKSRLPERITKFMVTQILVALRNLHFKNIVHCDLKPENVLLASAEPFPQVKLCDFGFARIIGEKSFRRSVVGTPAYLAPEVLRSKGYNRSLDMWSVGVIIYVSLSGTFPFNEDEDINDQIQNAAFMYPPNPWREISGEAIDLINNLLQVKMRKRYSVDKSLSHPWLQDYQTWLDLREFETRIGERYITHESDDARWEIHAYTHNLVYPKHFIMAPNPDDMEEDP
Nature of the experiment: Residual activity of PKCnu at 10 uM by microplate scintillation counting.

Among the data in ChEMBL document CHEMBL1152560, “Substituted 2-arylbenzothiazoles as kinase inhibitors: hit-to-lead optimization” (Bioorg Med Chem, 2009) are residual activity values, retold here.

Chain of Serine/threonine-protein kinase 33 (Homo sapiens) (Q9BYT3 whole entry, looked up): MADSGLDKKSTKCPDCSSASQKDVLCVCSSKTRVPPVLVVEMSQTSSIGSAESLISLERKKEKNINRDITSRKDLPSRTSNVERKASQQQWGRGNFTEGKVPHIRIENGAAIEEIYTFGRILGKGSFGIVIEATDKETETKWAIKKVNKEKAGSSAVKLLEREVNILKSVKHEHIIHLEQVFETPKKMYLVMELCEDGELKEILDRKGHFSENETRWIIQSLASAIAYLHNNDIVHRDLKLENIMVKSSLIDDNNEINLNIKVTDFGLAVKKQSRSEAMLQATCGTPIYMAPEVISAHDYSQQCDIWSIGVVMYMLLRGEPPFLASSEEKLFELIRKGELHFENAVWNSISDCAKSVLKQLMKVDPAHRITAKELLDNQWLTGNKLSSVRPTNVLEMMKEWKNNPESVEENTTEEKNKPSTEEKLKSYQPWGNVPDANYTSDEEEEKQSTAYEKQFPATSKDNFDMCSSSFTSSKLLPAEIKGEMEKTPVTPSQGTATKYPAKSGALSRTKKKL
Chain of Serine/threonine-protein kinase PLK2 (Homo sapiens) (Q9NYY3 whole entry, looked up): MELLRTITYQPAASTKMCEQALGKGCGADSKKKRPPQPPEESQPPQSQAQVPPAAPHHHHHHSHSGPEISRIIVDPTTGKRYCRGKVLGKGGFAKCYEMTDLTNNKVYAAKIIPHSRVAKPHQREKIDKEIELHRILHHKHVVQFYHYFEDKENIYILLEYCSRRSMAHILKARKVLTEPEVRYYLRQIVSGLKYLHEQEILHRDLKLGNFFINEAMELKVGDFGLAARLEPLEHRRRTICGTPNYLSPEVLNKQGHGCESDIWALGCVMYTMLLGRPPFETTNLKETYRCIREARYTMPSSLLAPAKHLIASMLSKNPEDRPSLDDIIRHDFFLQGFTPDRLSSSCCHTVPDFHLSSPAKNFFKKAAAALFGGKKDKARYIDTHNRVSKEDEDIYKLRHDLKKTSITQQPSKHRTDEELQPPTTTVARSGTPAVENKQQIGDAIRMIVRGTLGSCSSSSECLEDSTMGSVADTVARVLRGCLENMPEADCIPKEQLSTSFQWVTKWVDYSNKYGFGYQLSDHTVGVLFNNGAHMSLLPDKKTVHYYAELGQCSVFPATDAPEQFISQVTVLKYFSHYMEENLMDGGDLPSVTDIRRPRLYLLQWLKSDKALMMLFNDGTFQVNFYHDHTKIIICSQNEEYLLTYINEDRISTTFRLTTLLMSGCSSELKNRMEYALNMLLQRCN

By residual activity is commonly meant the signal under treatment as a percentage of the control signal. On to `COc1cc2c(Oc3ccc(-c4nc5ccccc5s4)cc3)ncnc2cc1OCCCN1CCCC1`, for which the residual activity in experiment [1] was found to be 107%; in experiment [2] it was 84%; in experiment [3] it was 85%; in experiment [4], 86%; in experiment [5], 82%.
Turning to `COc1cc2c(Oc3ccc(-c4nc5ccccc5s4)cc3F)ncnc2cc1OCCCN1CCN(C)CC1`, the residual activity in experiment [1] was 94%; in experiment [2], 85%; in experiment [3] it was 93%; in experiment [4] it was 94%; in experiment [5], 50%.
With `COc1cc2c(Oc3ccc(-c4nc5ccccc5s4)cc3)ncnc2cc1OCCCN1CCN(C)CC1`, the residual activity in experiment [1] came out at 81%; in experiment [2] it was 96%; in experiment [3], 89%; in experiment [4] it was 86%; in experiment [5], 52%.
